From patent US20060105008A1, “Compositions and methods for reducing vaginal pH” (priority 2002, published 2006)
≈ marks a conversion by molar mass, not a printed value. Where two headings read alike, the source gives them in different places.

Columns and labels:
Experiment in all cases: In vitro evaluation of azole compounds, MIC
Assay type in all cases: cell-based
[1] = tested on: Gardnerella vaginalis; conditions: one table line per isolate, read-out: MIC's of drug needed to inhibit the growth of organism
[2] = tested on: Peptostreptococcus magnus; conditions: Finegoldia magna, one table line per isolate, read-out: MIC's of drug needed to inhibit the growth of organism
[3] = tested on: Peptostreptococcus tetradius; conditions: for MIC: Anaerococcus tetradius, read-out: MIC's of drug needed to inhibit the growth of organism
[4] = tested on: Peptostreptococcus asaccharolyticus; conditions: Peptoniphilus asaccharolyticus, one table line per isolate, read-out: MIC's of drug needed to inhibit the growth of organism
[5] = tested on: Prevotella bivia; conditions: one table line per isolate; for MIC: read-out: MIC's of drug needed to inhibit the growth of organism
[6] = tested on: Prevotella disiens; conditions: one table line per isolate; for MIC: read-out: MIC's of drug needed to inhibit the growth of organism
[7] = tested on: Prevotella intermedia; conditions: one table line per isolate; for MIC: read-out: MIC's of drug needed to inhibit the growth of organism
[8] = tested on: Prevotella melaninogenica; conditions: one table line per isolate; for MIC: read-out: MIC's of drug needed to inhibit the growth of organism
[9] = tested on: Mobiluncus mulieris; conditions: read-out: MIC's of drug needed to inhibit the growth of organism
[10] = tested on: Bacillus fragilis; conditions: read-out: MIC's of drug needed to inhibit the growth of organism
[11] = tested on: Bacillus theta; conditions: read-out: MIC's of drug needed to inhibit the growth of organism
[12] = tested on: Lactobacillus plantarum; conditions: Lactiplantibacillus plantarum, read-out: MIC's of drug needed to inhibit the growth of organism
[13] = tested on: Lactobacillus species; conditions: read-out: MIC's of drug needed to inhibit the growth of organism
[14] = tested on: Lactobacillus acidophilus; conditions: one table line per isolate; for MIC: read-out: MIC's of drug needed to inhibit the growth of organism
[15] = Peptostreptococcus tetradius, one table line per isolate

| SMILES | MIC [4] [µg/mL] | MIC [5] [µg/mL] | MIC [7] [µg/mL] | MIC [9] [µg/mL] | MIC [10] [µg/mL] | MIC [11] [µg/mL] | MIC [13] [µg/mL] | MIC [14] [µg/mL] | MIC [3, 15] [µg/mL] | MIC's of drug needed to inhibit the growth of organism [3, 15] [µg/mL] | MIC's of drug needed to inhibit the growth of organism [7] [µg/mL] | MIC [2] [µg/mL] | MIC [6] [µg/mL] | MIC [8] [µg/mL] | MIC [12] [µg/mL] | other results |
| --- | --- | --- | --- | --- | --- | --- | --- | --- | --- | --- | --- | --- | --- | --- | --- | --- |
| OC(Cn1cncn1)(Cn1cncn1)c1ccc(F)cc1F [Fluconazole] | > 2050 | > 2050 | > 2050 | > 2050 | > 2050 | > 2050 | > 2050 | > 2050 |  |  |  | > 2050 | > 2050 | > 2050 | > 2050 | MIC [1]: > 2050 µg/mL; MIC's of drug needed to inhibit the growth of organism [3]: 2048 µg/mL; MIC [3]: > 2050 µg/mL |
| Cc1ncc([N+](=O)[O-])n1CCO [Metronidazole] |  | 1 (≈ 5.84 µM) | 1 (≈ 5.84 µM) | 4 (≈ 23.4 µM) | 0.5 (≈ 2.92 µM) | 2 (≈ 11.7 µM) | > 32 | > 32 | 1 (≈ 5.84 µM) | 0.5 |  |  | 0.5 (≈ 2.92 µM) |  | 1 (≈ 5.84 µM) | MIC's of drug needed to inhibit the growth of organism [6]: 1 µg/mL |
| Clc1ccc(COC(Cn2ccnc2)c2ccc(Cl)cc2Cl)c(Cl)c1 (stereo not shown) [Miconazole] |  | 128 (≈ 308 µM) | 64 (≈ 154 µM) | 8 (≈ 19.2 µM) | > 128 | 128 (≈ 308 µM) | > 128 | > 128 |  |  |  |  | 64 (≈ 154 µM) | 64 (≈ 154 µM) | 32 (≈ 76.9 µM) | MIC's of drug needed to inhibit the growth of organism [5]: 64 µg/mL |

More lines, main results first:

| MIC [4] [µg/mL] | MIC [5] [µg/mL] | MIC [7] [µg/mL] | MIC [9] [µg/mL] | MIC [10] [µg/mL] | MIC [11] [µg/mL] | MIC [13] [µg/mL] | MIC [14] [µg/mL] | MIC [3, 15] [µg/mL] | MIC's of drug needed to inhibit the growth of organism [3, 15] [µg/mL] | MIC's of drug needed to inhibit the growth of organism [7] [µg/mL] | SMILES | MIC [2] [µg/mL] | MIC [6] [µg/mL] | MIC [8] [µg/mL] | MIC [12] [µg/mL] | other results |
| --- | --- | --- | --- | --- | --- | --- | --- | --- | --- | --- | --- | --- | --- | --- | --- | --- |
| 256 (≈ 481 µM) | 256 (≈ 481 µM) | 128 (≈ 240 µM) | 256 (≈ 481 µM) | 256 (≈ 481 µM) | 256 (≈ 481 µM) | 512 (≈ 962 µM) | 512 (≈ 962 µM) | 256 (≈ 481 µM) |  | 256 | CC(C)N1CCN(c2ccc(OCC3COC(Cn4cncn4)(c4ccc(Cl)cc4Cl)O3)cc2)CC1 (stereo not shown) [Terconazole] | 256 (≈ 481 µM) | 128 (≈ 240 µM) | 64 (≈ 120 µM) | 256 (≈ 481 µM) |  |
| 1 (≈ 4.04 µM) | 1 (≈ 4.04 µM) | 0.5 (≈ 2.02 µM) | 1 (≈ 4.04 µM) | 0.5 (≈ 2.02 µM) | 1 (≈ 4.04 µM) | > 128 | > 128 | 0.5 (≈ 2.02 µM) | 0.25 | 1 | CCS(=O)(=O)CCn1c([N+](=O)[O-])cnc1C [Tinidazole] |  |  | 2 (≈ 8.09 µM) | 0.65 (≈ 2.63 µM) | MIC's of drug needed to inhibit the growth of organism [8]: 1 µg/mL; MIC's of drug needed to inhibit the growth of organism [14]: <128 µg/mL |
